The structures appear in SMILES notation. Some results are limits rather than exact numbers.

Results on 65 compounds are retold here after US20230339851A1, “CXCR6 SULFONAMIDE COMPOUNDS” (CHEMOCENTRYX, INC., priority 2022, published 2023).

For the assay, the target named is T1, human CXCR6 (Homo sapiens, UniProt O00574).
T1 construct: expressed in transfected cells
T1 sequence (O00574 whole entry): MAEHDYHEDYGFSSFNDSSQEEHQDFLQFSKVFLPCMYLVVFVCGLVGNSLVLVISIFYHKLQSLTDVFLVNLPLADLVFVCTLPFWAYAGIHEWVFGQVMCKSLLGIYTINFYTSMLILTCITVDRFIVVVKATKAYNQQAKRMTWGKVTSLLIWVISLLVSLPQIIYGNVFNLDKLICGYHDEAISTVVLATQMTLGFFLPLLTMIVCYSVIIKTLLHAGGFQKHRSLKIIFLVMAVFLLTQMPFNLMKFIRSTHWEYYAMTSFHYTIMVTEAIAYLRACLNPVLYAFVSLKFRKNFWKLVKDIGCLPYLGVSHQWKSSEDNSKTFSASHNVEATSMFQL
Put plainly: Radioligand Binding Assay (125I-CXCL16 displacement). Conditions: L1.2 cells stably transfected with human CXCR6 cDNA, 0.1 nM 125I-CXCL16, 4° C., three-hour incubation; read-out: Potency (IC50). In a few lines: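 Displacement of 0.1 nM 125I-CXCL16 from human CXCR6 stably expressed in L1.2 cells was measured after a 3 h, 4 °C incubation in HBSS with 0.1% BSA. Filter-bound cpm were counted, and IC50 values came from a 3-parameter nonlinear fit.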
As to `Cc1cc(NC(=O)[C@@H]2CCCN2)ccc1S(=O)(=O)Nc1cccc(C(F)(F)F)c1` [Example 1.328], the 50% inhibitory concentration (IC50) fell in the range of 0.75 to 2 µM.
As to `CCOc1cc(NC(=O)[C@@H](O)c2ccccc2F)ccc1S(=O)(=O)Nc1cccc(OC(F)(F)F)c1` [Example 1.329], the IC50 was at most 0.2 µM.
Turning to `Cc1cc(NC(=O)c2cccnc2)ccc1S(=O)(=O)Nc1cccc(C(F)(F)F)c1` [Example 1.330], the IC50 is 0.2 to 0.75 µM.
In the case of `COc1cc(NC(=O)c2ccnn2C)ccc1S(=O)(=O)Nc1cccc(C#N)c1` [Example 1.331], the half-maximal inhibitory concentration (IC50) is 2 to 20 µM.
Turning to `CCOc1cc(NC(=O)c2ccn(C)c(=O)c2C)ccc1S(=O)(=O)Nc1cccc(OC(F)(F)F)c1` [Example 1.332], the IC50 is at most 0.2 µM.
Turning to `CCOc1cc(NC(=O)[C@@H](NC(N)=O)C(C)C)ccc1S(=O)(=O)Nc1cccc(OC(F)(F)F)c1` [Example 1.334], the 50% inhibitory concentration (IC50) was at most 0.2 µM.
As to `CCOc1cc(NC(=O)C(CCO)C(F)(F)F)ccc1S(=O)(=O)Nc1cccc(OC(F)(F)F)c1` (centres unmarked) [Example 1.335], the concentration for half-maximal inhibition (IC50) is at most 0.2 µM.
Regarding `COc1cc(NC(=O)c2ccnn2C)ccc1S(=O)(=O)Nc1cc(Cl)cc(OC(F)(F)F)c1` [Example 1.336], the half-inhibitory concentration (IC50) is 0.2 to 0.75 µM.
As to `COc1cc(NC(=O)c2ccnn2C)ccc1S(=O)(=O)Nc1cccc(N(C)C)c1` [Example 1.337], the concentration for half-maximal inhibition (IC50) fell in the range of 0.75 to 2 µM.
As to `CCOc1cc(NC(=O)C(O)c2ccc(Cl)cc2)ccc1S(=O)(=O)Nc1cccc(OC(F)(F)F)c1` (centres unmarked) [Example 1.338], the IC50 is at most 0.2 µM.
As for `CCOc1cc(NC(=O)C(C(=O)NCCO)C2CCCC2)ccc1S(=O)(=O)Nc1cccc(OC(F)(F)F)c1` (centres unmarked) [Example 1.339], the IC50 was at most 0.2 µM.
As to `CCOc1cc(NC(=O)[C@@H](O)C(C)C)ccc1S(=O)(=O)Nc1ccc2c(c1)OC(F)(F)O2` [Example 1.340], the IC50 lay in the range of 0.75 to 2 µM.
In the case of `CCOc1cc(NC(=O)[C@@H](CO)C(C)C)ccc1S(=O)(=O)Nc1ccc(C)c(OC(F)(F)F)c1` [Example 1.342], the half-inhibitory concentration (IC50) is at most 0.2 µM.
As to `COc1cc(NC(=O)CC2CCCCC2)ccc1S(=O)(=O)Nc1cccc(C(F)(F)F)c1` [Example 1.343], the half-inhibitory concentration (IC50) is 0.75 to 2 µM.
As for `COc1cc(NC(=O)CC2CCCCC2)ccc1S(=O)(=O)Nc1cccc(C(F)(F)F)c1` [Example 1.344], the IC50 was at most 0.2 µM.
As for `CCOc1cc(NC(=O)[C@@H](O)C2CCCCC2)ccc1S(=O)(=O)Nc1cccc(OC(F)(F)F)c1` [Example 1.345], the half-inhibitory concentration (IC50) is at most 0.2 µM.
As to `Cc1cc(NC(=O)c2ccns2)ccc1S(=O)(=O)Nc1cccc(C(F)(F)F)c1` [Example 1.346], the IC50 was at most 0.2 µM.
For the compound `COc1cc(NC(=O)[C@@H]2CCC[C@@H]2N)ccc1S(=O)(=O)Nc1cccc(C(F)(F)F)c1` [Example 1.347], the IC50 was 2 to 20 µM.
Turning to `COc1cccc(NS(=O)(=O)c2ccc(NC(=O)c3ccnn3C)cc2OC)c1` [Example 1.348], the IC50 lay in the range of 0.75 to 2 µM.
`CCOc1cc(NC(=O)[C@@H](NC(C)=O)C(C)CC)ccc1S(=O)(=O)Nc1cccc(OC(F)(F)F)c1` (some centres unmarked) [Example 1.349]: the half-maximal inhibitory concentration (IC50) is at most 0.2 µM.
`CCOc1cc(NC(=O)[C@@H](CO)c2ccccc2)ccc1S(=O)(=O)Nc1cccc(Cl)c1C(F)(F)F` [Example 1.350]: the IC50 lay in the range of 2 to 20 µM.
Regarding `Cn1nccc1C(=O)Nc1ccc(S(=O)(=O)Nc2cccc(C(F)(F)F)c2)c(Br)c1` [Example 1.351], the concentration for half-maximal inhibition (IC50) lay in the range of 0.2 to 0.75 µM.
`C=C(C)CC(CO)C(=O)Nc1ccc(S(=O)(=O)Nc2cccc(OC(F)(F)F)c2)c(OCC)c1` (centres unmarked) [Example 1.352]: the half-maximal inhibitory concentration (IC50) is at most 0.2 µM.
Regarding `CCOc1cc(NC(=O)[C@@H](CO)C(C)C)ccc1S(=O)(=O)Nc1cccc(C(C)(C)O)c1` [Example 1.353], the 50% inhibitory concentration (IC50) is 2 to 20 µM.
Regarding `COc1cc(S(=O)(=O)Nc2cccc(C(F)(F)F)c2)c(C)cc1NC(C)=O` [Example 1.354], the IC50 fell in the range of 2 to 20 µM.
In the case of `CCOc1cc(NC(=O)C2CCCCCC2)ccc1S(=O)(=O)Nc1cccc(OC(F)(F)F)c1` [Example 1.355], the concentration for half-maximal inhibition (IC50) was in the range of 0.75 to 2 µM.
On to `CCOc1cc(NC(=O)[C@@H](CO)C(C)C)ccc1S(=O)(=O)Nc1ccc(C)c(CC)c1` [Example 1.356], for which the 50% inhibitory concentration (IC50) is at most 0.2 µM.
For `CCOc1cc(NC(=O)c2cccc3cn[nH]c23)ccc1S(=O)(=O)Nc1cccc(OC(F)(F)F)c1` [Example 1.357], the IC50 is 0.2 to 0.75 µM.
The value for `CCOc1cc(NC(=O)[C@H]2CC=CC[C@@H]2C(=O)O)ccc1S(=O)(=O)Nc1cccc(OC(F)(F)F)c1` [Example 1.358] was at most 0.2 µM; that for `Cc1cc(NC(=O)c2cscn2)ccc1S(=O)(=O)Nc1cccc(C(F)(F)F)c1` [Example 1.359] was 2 to 20 µM; that for `COc1cc(NC(=O)C2CC3CCC2O3)ccc1S(=O)(=O)Nc1cccc(OC(F)(F)F)c1` (centres unmarked) [Example 1.360] was 0.2 to 0.75 µM.
For `O=C(Nc1ccc(S(=O)(=O)Nc2cccc(OC(F)(F)F)c2)c(OC(F)(F)F)c1)[C@@H](CO)c1ccccc1` [Example 1.361], the half-maximal inhibitory concentration (IC50) is at most 0.2 µM.
With `CCOc1cc(NC(=O)[C@@H](CO)C(C)C)ccc1S(=O)(=O)Nc1cccc(Cl)c1OC` [Example 1.362], the 50% inhibitory concentration (IC50) was in the range of 0.75 to 2 µM.
As for `CCOc1cc(NC(=O)[C@@H](O)C(C)C)ccc1S(=O)(=O)Nc1ccc(C)c(C(F)(F)F)c1` [Example 1.363], the IC50 was at most 0.2 µM.
For the compound `COc1cc(NC(=O)C2CCO[C@@H]2C)ccc1S(=O)(=O)Nc1cccc(OC(F)(F)F)c1` (some centres unmarked) [Example 1.364], the IC50 lay within 0.75 to 2 µM.
With `Cc1cc(NC(=O)C2CCN(C(=O)OC(C)(C)C)CC2)ccc1S(=O)(=O)Nc1cccc(C(F)(F)F)c1` [Example 1.365], the IC50 is 2 to 20 µM.
As for `CCOc1cc(NC(=O)c2ccncc2)ccc1S(=O)(=O)Nc1cccc(OC(F)(F)F)c1` [Example 1.366], the 50% inhibitory concentration (IC50) was at most 0.2 µM.
As for `CCOc1cc(NC(=O)[C@@H](NS(C)(=O)=O)C(C)CC)ccc1S(=O)(=O)Nc1cccc(OC(F)(F)F)c1` (some centres unmarked) [Example 1.367], the IC50 lay in the range of 2 to 20 µM.
Then `CCOc1cc(NC(=O)[C@@H](O)C(C)C)ccc1S(=O)(=O)Nc1ccc(C)c(Cl)c1` [Example 1.368], with at most 0.2 µM; and `COc1cc(NC(=O)[C@@H](O)C(C)C)ccc1S(=O)(=O)Nc1ccc(C)c(C(F)(F)F)c1` [Example 1.369], with 0.2 to 0.75 µM.
Then `COc1cc(NC(=O)C2CC3C=CC2O3)ccc1S(=O)(=O)Nc1cccc(OC(F)(F)F)c1` (centres unmarked) [Example 1.370], with 0.75 to 2 µM; and `COc1cc(NC(=O)[C@H]2CC[C@@H](OC)CC2)ccc1S(=O)(=O)Nc1cccc(C(F)(F)F)c1` [Example 1.371], with 2 to 20 µM; and `C=Cc1cc(NS(=O)(=O)c2ccc(NC(=O)[C@@H](CO)c3ccccc3)cc2OCC)ccc1C` [Example 1.372], with at most 0.2 µM.
Then `CCOc1cc(NC(=O)C2CCC(O)C2)ccc1S(=O)(=O)Nc1cccc(OC(F)(F)F)c1` (centres unmarked) [Example 1.373], with 0.75 to 2 µM; and `COc1cc(NC(C)=O)ccc1S(=O)(=O)Nc1cccc(C(F)(F)F)c1` [Example 1.374], with 2 to 20 µM; and `CCOc1cc(NC(=O)[C@@H](O)C(C)C)ccc1S(=O)(=O)Nc1ccc(Cl)c(Cl)c1` [Example 1.375], with at most 0.2 µM.
For `CCOc1cc(NC(=O)C(CO)C2CCC2)ccc1S(=O)(=O)Nc1cccc(OC(F)(F)F)c1` (centres unmarked) [Example 1.376], the IC50 is at most 0.2 µM.
Take `CCOc1cc(NC(=O)C(C(=O)O)C2CCOCC2)ccc1S(=O)(=O)Nc1cccc(OC(F)(F)F)c1` (centres unmarked) [Example 1.377]: the 50% inhibitory concentration (IC50) is at most 0.2 µM.
Take `COc1cc(NC(=O)C2CC3C=CC2C3)ccc1S(=O)(=O)Nc1cccc(C(F)(F)F)c1` (centres unmarked) [Example 1.379]: the IC50 lay in the range of 0.2 to 0.75 µM.
Regarding `Cc1cc(NC(=O)c2cccc(F)c2)ccc1S(=O)(=O)Nc1cccc(C(F)(F)F)c1` [Example 1.380], the IC50 lay in the range of 0.2 to 0.75 µM.
`Cc1cc(NC(=O)C2CCNCC2)ccc1S(=O)(=O)Nc1cccc(C(F)(F)F)c1` [Example 1.381]: the IC50 is 2 to 20 µM.
Regarding `CCc1cc(NC(C)=O)ccc1S(=O)(=O)Nc1cccc(C(F)(F)F)c1` [Example 1.382], the half-inhibitory concentration (IC50) lay in the range of 0.75 to 2 µM.
`CCOc1cc(NC(=O)C(CCO)CC(C)C)ccc1S(=O)(=O)Nc1cccc(OC(F)(F)F)c1` (centres unmarked) [Example 1.383]: the IC50 is at most 0.2 µM.
The value for `CC(C)c1cc(NC(=O)c2ccnn2C)ccc1S(=O)(=O)Nc1cccc(C(F)(F)F)c1` [Example 1.384] was 0.2 to 0.75 µM; that for `CC(=O)Nc1ccc(S(=O)(=O)Nc2cccc(C(F)(F)F)c2)c(F)c1` [Example 1.385] was 2 to 20 µM.
For `CCOc1cc(NC(=O)C(CNC(C)=O)c2ccccc2)ccc1S(=O)(=O)Nc1cccc(OC(F)(F)F)c1` (centres unmarked) [Example 1.386], the 50% inhibitory concentration (IC50) is at most 0.2 µM.
As to `CCOc1cc(NC(=O)CC(O)CO)ccc1S(=O)(=O)Nc1cccc(OC(F)(F)F)c1` (centres unmarked) [Example 1.387], the IC50 was 0.75 to 2 µM.
`CCOc1cc(NC(=O)[C@@H](CO)c2ccccc2)ccc1S(=O)(=O)Nc1ccc(CO)c(C(F)(F)F)c1` [Example 1.388]: the half-maximal inhibitory concentration (IC50) was 2 to 20 µM.
Take `CCOc1cc(NC(=O)[C@@H](CO)c2ccccc2)ccc1S(=O)(=O)Nc1ccc(Cl)c(OC(F)(F)F)c1` [Example 1.389]: the half-maximal inhibitory concentration (IC50) was at most 0.2 µM.
Then `CCOc1cc(NC(=O)C(O)[C@@H](C)CC)ccc1S(=O)(=O)Nc1cccc(C(F)(F)F)c1` (some centres unmarked) [Example 1.390], with at most 0.2 µM; and `CCC(C)[C@H](O)C(=O)Nc1ccc(S(=O)(=O)Nc2cccc(OC(F)(F)F)c2)c(OC)c1` (some centres unmarked) [Example 1.391], with at most 0.2 µM.
Take `COc1cc(NC(=O)[C@@H]2CCC[C@H]2N)ccc1S(=O)(=O)Nc1cccc(C(F)(F)F)c1` [Example 1.392]: the IC50 was 2 to 20 µM.
For the compound `CCOc1cc(NC(=O)[C@@H](N)C2CC2)ccc1S(=O)(=O)Nc1cccc(OC(F)(F)F)c1` [Example 1.393], the IC50 was at most 0.2 µM.
`CCOc1cc(NC(=O)C2(c3ccccc3)CC2)ccc1S(=O)(=O)Nc1cccc(OC(F)(F)F)c1` [Example 1.394]: the IC50 is 0.75 to 2 µM.
In the case of `O=C(Nc1ccc(S(=O)(=O)Nc2cccc(OC(F)(F)F)c2)c(F)c1)C(CO)c1ccccc1` (centres unmarked) [Example 1.395], the IC50 fell in the range of 0.75 to 2 µM.

The term IC50 denotes the concentration that gives 50% inhibition.
